# Test results reported in ChEMBL document CHEMBL4376829, “Discovery and biological evaluation of vinylsulfonamide derivatives as highly potent, covalent TEAD autopalmitoylation inhibitors” (Eur J Med Chem, 2019).
# What was measured:
# [1] = target: Insulin-like growth factor 1 receptor (Homo sapiens) (UniProt P08069); experiment: Inhibition of recombinant human IGF1R (959 to end residues) at 10 uM using KKKSPGEYVNIEFG as substrate after 40 mins in presence of [gamma33P]ATP by scintillation counting method relative to control
# Sequence of Insulin-like growth factor 1 receptor (Homo sapiens) (P08069 31-736 limits assumed): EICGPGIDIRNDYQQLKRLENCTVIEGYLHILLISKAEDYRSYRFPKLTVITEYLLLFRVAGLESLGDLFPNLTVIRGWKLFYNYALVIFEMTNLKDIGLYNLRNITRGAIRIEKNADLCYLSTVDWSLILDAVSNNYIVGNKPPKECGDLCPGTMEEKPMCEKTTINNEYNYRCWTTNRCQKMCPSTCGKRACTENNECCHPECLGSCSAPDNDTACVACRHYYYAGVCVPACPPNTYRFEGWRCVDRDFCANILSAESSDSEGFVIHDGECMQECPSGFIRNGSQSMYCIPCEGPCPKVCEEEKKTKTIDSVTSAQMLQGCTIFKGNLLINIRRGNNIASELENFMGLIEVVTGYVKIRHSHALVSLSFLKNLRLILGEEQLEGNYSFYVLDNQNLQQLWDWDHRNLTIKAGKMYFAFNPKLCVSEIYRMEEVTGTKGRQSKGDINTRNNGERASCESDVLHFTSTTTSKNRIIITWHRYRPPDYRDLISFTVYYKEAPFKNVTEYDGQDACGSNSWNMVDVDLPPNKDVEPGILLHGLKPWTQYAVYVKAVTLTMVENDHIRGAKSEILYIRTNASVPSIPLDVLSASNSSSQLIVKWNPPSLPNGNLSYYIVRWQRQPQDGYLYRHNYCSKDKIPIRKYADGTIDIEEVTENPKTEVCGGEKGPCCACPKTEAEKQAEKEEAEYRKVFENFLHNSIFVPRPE
# Sequence of Insulin-like growth factor 1 receptor (Homo sapiens) (P08069 741-1367 limits assumed): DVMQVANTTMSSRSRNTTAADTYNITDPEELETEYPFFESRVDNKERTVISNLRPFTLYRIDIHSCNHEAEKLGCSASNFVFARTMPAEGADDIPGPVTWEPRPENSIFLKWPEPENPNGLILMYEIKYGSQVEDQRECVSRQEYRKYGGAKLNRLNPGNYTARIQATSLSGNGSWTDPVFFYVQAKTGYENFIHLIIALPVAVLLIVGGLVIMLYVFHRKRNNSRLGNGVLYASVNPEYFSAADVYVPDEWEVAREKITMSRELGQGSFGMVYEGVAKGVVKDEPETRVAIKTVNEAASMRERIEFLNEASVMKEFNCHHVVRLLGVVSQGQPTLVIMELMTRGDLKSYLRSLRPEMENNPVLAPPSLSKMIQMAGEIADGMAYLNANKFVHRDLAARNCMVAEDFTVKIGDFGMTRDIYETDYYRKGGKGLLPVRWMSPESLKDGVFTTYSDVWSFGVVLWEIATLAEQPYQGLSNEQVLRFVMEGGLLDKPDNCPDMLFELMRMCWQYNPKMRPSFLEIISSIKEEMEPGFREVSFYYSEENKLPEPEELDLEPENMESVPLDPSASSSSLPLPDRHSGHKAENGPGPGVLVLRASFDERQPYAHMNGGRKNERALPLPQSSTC
# [2] = target: MAP kinase-interacting serine/threonine-protein kinase 2 (Homo sapiens) (UniProt Q9HBH9); experiment: Inhibition of recombinant full-length human MNK2 at 10 uM using myelin basic protein as substrate measured after 40 mins in presence of [gamma33P]ATP by scintillation counting analysis relative to control
# [3] = target: NUAK family SNF1-like kinase 2 (Homo sapiens) (UniProt Q9H093); experiment: Inhibition of recombinant human full length NUAK2 at 10 uM using KKKVSRSGLYRSPSMPENLNRPR as substrate incubated for 40 mins in presence of [gamma-33P]-ATP by scintillation counting method relative to control
# [4] = target: Focal adhesion kinase 1 (Homo sapiens) (UniProt Q05397); experiment: Inhibition of recombinant human FAK (411 to 686 residues) at 10 uM using EEEEYEEEEEEYYIIEEEEEEYEEEEEEYYEEEEEEKKKK as substrate measured after 40 mins in presence of [gamma33P]ATP by scintillation counting method relative to control
# Sequence of Focal adhesion kinase 1 (Homo sapiens) (Q05397 2-1052 limits assumed): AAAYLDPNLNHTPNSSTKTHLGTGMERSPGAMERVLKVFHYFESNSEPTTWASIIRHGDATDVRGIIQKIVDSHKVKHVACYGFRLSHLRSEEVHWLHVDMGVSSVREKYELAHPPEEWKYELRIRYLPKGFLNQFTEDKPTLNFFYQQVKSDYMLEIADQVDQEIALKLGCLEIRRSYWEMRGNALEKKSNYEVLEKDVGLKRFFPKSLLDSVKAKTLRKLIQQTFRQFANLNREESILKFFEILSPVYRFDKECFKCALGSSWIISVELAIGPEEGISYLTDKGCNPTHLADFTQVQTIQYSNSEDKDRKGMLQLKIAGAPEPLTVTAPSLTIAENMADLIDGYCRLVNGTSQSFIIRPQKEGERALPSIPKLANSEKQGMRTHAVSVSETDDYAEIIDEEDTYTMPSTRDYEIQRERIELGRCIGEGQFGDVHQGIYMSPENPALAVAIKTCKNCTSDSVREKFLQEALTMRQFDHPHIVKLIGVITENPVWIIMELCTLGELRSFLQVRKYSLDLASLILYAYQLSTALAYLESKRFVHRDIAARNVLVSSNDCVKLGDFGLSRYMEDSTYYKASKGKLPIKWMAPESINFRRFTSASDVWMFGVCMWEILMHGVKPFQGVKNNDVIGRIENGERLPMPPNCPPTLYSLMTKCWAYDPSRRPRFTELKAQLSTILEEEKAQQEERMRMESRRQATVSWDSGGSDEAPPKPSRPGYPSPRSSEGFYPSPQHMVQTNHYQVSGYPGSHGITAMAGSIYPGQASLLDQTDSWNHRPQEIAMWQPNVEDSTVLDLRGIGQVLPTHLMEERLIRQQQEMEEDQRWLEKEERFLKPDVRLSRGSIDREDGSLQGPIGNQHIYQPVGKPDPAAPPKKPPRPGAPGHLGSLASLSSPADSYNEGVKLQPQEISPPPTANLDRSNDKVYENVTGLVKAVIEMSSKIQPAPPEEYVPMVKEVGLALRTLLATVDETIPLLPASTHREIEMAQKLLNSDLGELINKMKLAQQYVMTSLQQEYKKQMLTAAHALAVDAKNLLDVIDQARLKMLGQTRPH
# [5] = target: Protein kinase C iota type (Homo sapiens) (UniProt P41743); experiment: Inhibition of full-length recombinant human PKCiota at 10 uM using ERMRPRKRQGSVRRRV as substrate after 40 mins by in presence of [gamma33P]ATP by scintillation counting method relative to control
# Sequence of Protein kinase C iota type (Homo sapiens) (P41743 whole entry): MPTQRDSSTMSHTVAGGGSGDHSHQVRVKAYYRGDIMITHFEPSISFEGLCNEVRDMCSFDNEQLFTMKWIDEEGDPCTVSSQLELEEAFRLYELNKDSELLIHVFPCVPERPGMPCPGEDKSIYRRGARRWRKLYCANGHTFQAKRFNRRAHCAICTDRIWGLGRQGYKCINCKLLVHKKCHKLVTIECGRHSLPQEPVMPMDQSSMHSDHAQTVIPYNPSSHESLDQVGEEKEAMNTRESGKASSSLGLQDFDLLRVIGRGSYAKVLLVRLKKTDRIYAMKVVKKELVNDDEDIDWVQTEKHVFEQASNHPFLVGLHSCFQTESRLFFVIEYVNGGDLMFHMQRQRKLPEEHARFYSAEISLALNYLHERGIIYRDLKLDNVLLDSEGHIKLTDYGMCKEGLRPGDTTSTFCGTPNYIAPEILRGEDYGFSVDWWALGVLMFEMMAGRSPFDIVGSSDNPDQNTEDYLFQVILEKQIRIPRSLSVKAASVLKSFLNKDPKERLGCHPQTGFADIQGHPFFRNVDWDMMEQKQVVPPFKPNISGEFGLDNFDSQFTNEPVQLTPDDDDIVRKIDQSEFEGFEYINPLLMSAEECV
# [6] = target: Rhodopsin kinase GRK7 (Homo sapiens) (UniProt Q8WTQ7); experiment: Inhibition of full length recombinant human GRK7 at 10 uM using casein as substrate after 40 mins in presence of [gamma33P]ATP by scintillation counting method relative to control
# [7] = target: Insulin-like growth factor 1 receptor (Homo sapiens) (UniProt P08069); experiment: Inhibition of recombinant human IGF1R activated (959 to end residues) at 10 uM using KKKSPGEYVNIEF as substrate after 40 mins in presence of [gamma33P]ATP by scintillation counting method relative to control
# Homo sapiens = species on record: Homo sapiens; experiment: Inhibition of TEAD transcriptional activity in human HCT116 cells assessed as reduction in CTGF expression by qRT-PCR analysis; type: cell-based
# [8] = target: Interleukin-1 receptor-associated kinase 1 (Homo sapiens) (UniProt P51617); experiment: Inhibition of recombinant human IRAK1 (194 to end residues) at 10 uM using myelin basic protein as substrate after 40 mins in presence of [gamma33P]ATP by scintillation counting method relative to control
# Sequence of Interleukin-1 receptor-associated kinase 1 (Homo sapiens) (P51617 whole entry, looked up): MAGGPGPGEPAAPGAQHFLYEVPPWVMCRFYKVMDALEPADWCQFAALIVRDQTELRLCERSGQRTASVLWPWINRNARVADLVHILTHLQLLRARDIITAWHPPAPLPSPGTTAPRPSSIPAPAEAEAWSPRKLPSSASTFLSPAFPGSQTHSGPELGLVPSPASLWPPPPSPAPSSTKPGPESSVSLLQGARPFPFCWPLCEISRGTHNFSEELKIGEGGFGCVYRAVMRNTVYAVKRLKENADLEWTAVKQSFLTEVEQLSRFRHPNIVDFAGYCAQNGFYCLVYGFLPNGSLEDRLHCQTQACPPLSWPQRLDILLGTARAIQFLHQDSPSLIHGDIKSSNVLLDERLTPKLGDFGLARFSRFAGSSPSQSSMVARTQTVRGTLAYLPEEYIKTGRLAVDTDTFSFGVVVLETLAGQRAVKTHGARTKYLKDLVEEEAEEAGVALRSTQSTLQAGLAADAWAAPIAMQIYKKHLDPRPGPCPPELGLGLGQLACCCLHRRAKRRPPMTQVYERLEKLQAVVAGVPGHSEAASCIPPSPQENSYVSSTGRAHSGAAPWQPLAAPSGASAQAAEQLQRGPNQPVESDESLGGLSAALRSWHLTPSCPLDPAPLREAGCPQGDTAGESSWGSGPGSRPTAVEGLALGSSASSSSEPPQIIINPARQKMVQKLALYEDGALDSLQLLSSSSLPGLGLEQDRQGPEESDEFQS
# [9] = target: 3-phosphoinositide-dependent protein kinase 1 (Homo sapiens) (UniProt O15530); experiment: Inhibition of recombinant human PDK1 (52 to end residues) at 10 uM using KTFCGTPEYLAPEVRREPRILSEEEQEMFRDFDYIADWC as substrate measured after 40 mins in presence of [gamma33P]ATP by scintillation counting method relative to control
# [10] = tested on: CDK18/Cyclin Y (Homo sapiens), Q07002+Q8ND76 [T166M]; experiment: Inhibition of recombinant full length human cyclinY/CDK18 T166M mutant at 10 uM using YRRAAVPPSPSLS as substrate measured after 40 mins in presence of [gamma33P]ATP by scintillation counting method relative to control; type: protein-complex assay
# [11] = target: Serine/threonine-protein kinase pim-1 (Homo sapiens) (UniProt P11309); experiment: Inhibition of recombinant full-length human PIM1 at 10 uM using KKRNRTLTV as substrate measured after 40 mins in presence of [gamma33P]ATP by scintillation counting method relative to control
# [12] = target: Serine/threonine-protein kinase D3 (Homo sapiens) (UniProt O94806); experiment: Inhibition of full-length recombinant human PKD3 at 10 uM using KKLRRTLSVA as substrate after 40 mins by in presence of [gamma33P]ATP by scintillation counting method relative to control
# [13] = target: Tyrosine-protein kinase CSK (Homo sapiens) (UniProt P41240); experiment: Inhibition of recombinant full length human CSK at 10 uM using poly(Glu,Tyr) as substrate measured after 40 mins in presence of [gamma33P]ATP by scintillation counting method relative to control
# [14] = target: Cyclin-dependent kinase 13/Cyclin-K (Homo sapiens) (UniProt Q14004+O75909); experiment: Inhibition of full-length recombinant human CDK13/cyclinK at 10 uM using RSRSRSRSRSRSRSR as substrate after 120 mins by in presence of [gamma33P]ATP by scintillation counting method relative to control; type: protein-complex assay
# [15] = target: Mitogen-activated protein kinase kinase kinase kinase 5 (Homo sapiens) (UniProt Q9Y4K4); experiment: Inhibition of recombinant full-length human MAP4K5 at 10 uM using myelin basic protein as substrate measured after 40 mins in presence of [gamma33P]ATP by scintillation counting method relative to control
# [16] = target: Histone acetyltransferase KAT2A (Homo sapiens) (UniProt Q92830); experiment: Inhibition of human GCN5 at 10 uM after 1 hr by radioisotope-based assay relative to control
# [17] = target: Vascular endothelial growth factor receptor 2 (Homo sapiens) (UniProt P35968); experiment: Inhibition of recombinant human KDR (790 to end residues) at 10 uM using myelin basic protein as substrate measured after 40 mins in presence of [gamm33P]ATP by scintillation counting method relative to control
# [18] = target: Serine/threonine-protein kinase MAK (Homo sapiens) (UniProt P20794); experiment: Inhibition of recombinant full-length human MAK at 10 uM using RRRFRPASPLRGPPK as substrate measured after 120 mins in presence of [gamma33P]ATP by scintillation counting method relative to control
# [19] = target: Tyrosine-protein kinase ZAP-70 (Homo sapiens) (UniProt P43403); experiment: Inhibition of recombinant full-length human ZAP70 at 10 uM using poly(Glu, Tyr) 4:1 as substrate measured after 40 mins in presence of [gamma33P]ATP by scintillation counting method5 relative to control
# Sequence of Tyrosine-protein kinase ZAP-70 (Homo sapiens) (P43403 whole entry): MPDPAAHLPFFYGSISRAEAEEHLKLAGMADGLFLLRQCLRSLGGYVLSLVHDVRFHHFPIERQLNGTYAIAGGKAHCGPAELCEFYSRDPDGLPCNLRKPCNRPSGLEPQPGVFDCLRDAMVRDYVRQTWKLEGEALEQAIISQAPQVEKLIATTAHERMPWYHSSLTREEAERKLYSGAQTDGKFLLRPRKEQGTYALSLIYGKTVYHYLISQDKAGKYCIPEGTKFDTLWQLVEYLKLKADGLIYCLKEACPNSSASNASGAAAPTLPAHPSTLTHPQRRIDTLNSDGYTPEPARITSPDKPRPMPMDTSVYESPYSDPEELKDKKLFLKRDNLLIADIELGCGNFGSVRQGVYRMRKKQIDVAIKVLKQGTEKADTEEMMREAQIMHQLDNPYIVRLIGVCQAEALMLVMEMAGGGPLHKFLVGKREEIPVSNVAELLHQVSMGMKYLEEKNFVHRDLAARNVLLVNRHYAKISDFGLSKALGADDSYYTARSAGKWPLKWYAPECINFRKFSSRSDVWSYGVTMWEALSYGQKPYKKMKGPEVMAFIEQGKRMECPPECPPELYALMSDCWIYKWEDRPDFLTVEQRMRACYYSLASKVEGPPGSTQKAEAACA
# [20] = target: Serine/threonine-protein kinase NIM1 (Homo sapiens) (UniProt Q8IY84); experiment: Inhibition of recombinant human full length NIM1 at 10 uM using KKKVSRSGLYRSPSMPENLNRPR as substrate incubated for 40 mins in presence of [gamma-33P]-ATP by scintillation counting method relative to control
# Sequence of Serine/threonine-protein kinase NIM1 (Homo sapiens) (Q8IY84 whole entry, the tested form may be a part): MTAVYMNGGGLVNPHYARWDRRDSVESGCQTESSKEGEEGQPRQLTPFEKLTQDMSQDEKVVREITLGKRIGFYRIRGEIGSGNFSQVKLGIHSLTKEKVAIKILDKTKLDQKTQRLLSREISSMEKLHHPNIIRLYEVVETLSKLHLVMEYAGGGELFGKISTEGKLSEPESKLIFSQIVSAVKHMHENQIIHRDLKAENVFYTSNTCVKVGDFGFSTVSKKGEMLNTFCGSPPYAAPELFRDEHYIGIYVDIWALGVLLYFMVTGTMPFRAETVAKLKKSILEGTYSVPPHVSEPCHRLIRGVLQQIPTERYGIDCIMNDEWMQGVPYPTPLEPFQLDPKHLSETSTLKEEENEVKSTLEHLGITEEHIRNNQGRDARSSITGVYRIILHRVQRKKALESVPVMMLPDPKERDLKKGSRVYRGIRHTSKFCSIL
# [21] = target: Mitogen-activated protein kinase kinase kinase kinase 3 (Homo sapiens) (UniProt Q8IVH8); experiment: Inhibition of recombinant human MAP4K3 (1 to 291 residues) at 10 uM using RLGRDKYKTLRQIRQ as substrate measured after 40 mins in presence of [gamma33P]ATP by scintillation counting method relative to control
# [22] = target: CDK6/cyclin D3 (Homo sapiens) (UniProt P30281+Q00534); experiment: Inhibition of recombinant full-length human CDK6/cyclinD3 at 10 uM using histone H1 as substrate measured after 40 mins in presence of [gamma33P]ATP by scintillation counting method relative to control; type: protein-complex assay
compound,measurement,setting,value
C=CS(=O)(=O)Nc1ccc(Cc2ccc3ccccc3c2)cc1,inhibition,[1],-6%
same,inhibition,[2],7%
same,inhibition,[3],-6%
same,inhibition,[4],-3%
same,inhibition,[5],5%
same,inhibition,[6],4%
same,inhibition,[7],16%
same,inhibition,Homo sapiens,Dose-dependent effect
same,inhibition,[8],-9%
same,inhibition,[9],3%
same,inhibition,[10],-5%
same,inhibition,[11],-3%
same,inhibition,[12],22%
same,inhibition,[13],-1%
same,inhibition,[14],17%
same,inhibition,[15],2%
same,inhibition,[16],2%
same,inhibition,[17],2%
same,inhibition,[18],-3%
same,inhibition,[19],5%
same,inhibition,[20],-5%
same,inhibition,[21],9%
same,inhibition,[22],-1%
